Experimental findings from publication PMC9929631 (The EMBO Journal, 2023) are described below.

Entries after “also recorded” stand apart in the source; their conditions may differ. Like-named read-outs stand apart in the source and are kept apart here. Numbered stars: 1 amine (or outer) side, 2 acyl side, 3 side chain; on linkers, the order of the positions; unused ones are H or OH. Square brackets hold non-standard residues; d marks the D form. Ends that are not written are not given here. Peptide text beside a SMILES is read from it. * marks the point of attachment. X1 = N=c1ccc2c(-c3ccccc3C(=O)*)c3ccc(N)c(S(=O)(=O)O)c3oc-2c1S(=O)(=O)O; NMeGABA = CN(CCCC(=O)[*:2])[*:1]

The test system of assay [1] is DDB1‐DCAF12, DCAF12 Lys108Ala mutant. It counts as binding, human. The note with it: TR-FRET titration, n = 3. For orientation: TR-FRET usually uses a lanthanide donor and a delayed reading to cut background.
For assay [2], the system named is DDB1‐DCAF12, DCAF12 His144Ala mutant. The assay is classed as binding, human. To be noted: TR-FRET titration, n = 3.
The subject of assay [3] is DDB1‐DCAF12, DCAF12 Arg203Ala mutant. It counts as binding, human. The note with it: TR-FRET titration, n = 3.
For assay [4], the system named is DDB1‐DCAF12, DCAF12 Arg256Ala mutant. The assay is classed as binding, human. The note with it: TR-FRET titration, n = 3.
Assay [5] relates to DDB1‐DCAF12, DCAF12 Arg344Ala mutant. It counts as binding, human. To be noted: TR-FRET titration, n = 3.
Assay [6] concerns the target T1, DDB1‐DCAF12 (Homo sapiens, UniProt Q16531+Q5T6F0). Nature of the assay: TR-FRET competition assay. The assay is classed as binding.
Assay [7] addresses T1, DDB1‐DCAF12. The assay can be described thus: In vitro pull-downs with strep. The assay is classed as binding. To be noted: strep(II)-tagged DDB1-DCAF12, untagged CCT5; Coomassie-stained SDS–PAGE.
Assay [8] addresses biotinylated strep(II)-avi-DDB1-strep(II)-DCAF12 complex (wild type) (homo sapiens) (UniProt Q16531). The assay can be described thus: FRET or BRET. For orientation: Bioluminescence resonance energy transfer reports proximity on the nanometre scale.

T1 sequence (Q5T6F0 whole entry): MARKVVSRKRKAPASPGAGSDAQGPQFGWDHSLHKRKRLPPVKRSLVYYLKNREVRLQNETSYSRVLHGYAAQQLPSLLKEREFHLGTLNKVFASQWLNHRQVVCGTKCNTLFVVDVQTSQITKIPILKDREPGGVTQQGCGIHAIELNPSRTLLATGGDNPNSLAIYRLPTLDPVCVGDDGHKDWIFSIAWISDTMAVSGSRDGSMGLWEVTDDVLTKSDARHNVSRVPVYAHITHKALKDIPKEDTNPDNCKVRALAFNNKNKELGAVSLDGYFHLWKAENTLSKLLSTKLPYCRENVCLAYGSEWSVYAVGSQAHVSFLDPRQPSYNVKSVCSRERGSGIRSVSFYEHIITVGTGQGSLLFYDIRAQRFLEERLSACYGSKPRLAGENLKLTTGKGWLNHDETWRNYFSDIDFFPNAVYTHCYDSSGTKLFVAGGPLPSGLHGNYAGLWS
T1 sequence (Q16531 whole entry partner): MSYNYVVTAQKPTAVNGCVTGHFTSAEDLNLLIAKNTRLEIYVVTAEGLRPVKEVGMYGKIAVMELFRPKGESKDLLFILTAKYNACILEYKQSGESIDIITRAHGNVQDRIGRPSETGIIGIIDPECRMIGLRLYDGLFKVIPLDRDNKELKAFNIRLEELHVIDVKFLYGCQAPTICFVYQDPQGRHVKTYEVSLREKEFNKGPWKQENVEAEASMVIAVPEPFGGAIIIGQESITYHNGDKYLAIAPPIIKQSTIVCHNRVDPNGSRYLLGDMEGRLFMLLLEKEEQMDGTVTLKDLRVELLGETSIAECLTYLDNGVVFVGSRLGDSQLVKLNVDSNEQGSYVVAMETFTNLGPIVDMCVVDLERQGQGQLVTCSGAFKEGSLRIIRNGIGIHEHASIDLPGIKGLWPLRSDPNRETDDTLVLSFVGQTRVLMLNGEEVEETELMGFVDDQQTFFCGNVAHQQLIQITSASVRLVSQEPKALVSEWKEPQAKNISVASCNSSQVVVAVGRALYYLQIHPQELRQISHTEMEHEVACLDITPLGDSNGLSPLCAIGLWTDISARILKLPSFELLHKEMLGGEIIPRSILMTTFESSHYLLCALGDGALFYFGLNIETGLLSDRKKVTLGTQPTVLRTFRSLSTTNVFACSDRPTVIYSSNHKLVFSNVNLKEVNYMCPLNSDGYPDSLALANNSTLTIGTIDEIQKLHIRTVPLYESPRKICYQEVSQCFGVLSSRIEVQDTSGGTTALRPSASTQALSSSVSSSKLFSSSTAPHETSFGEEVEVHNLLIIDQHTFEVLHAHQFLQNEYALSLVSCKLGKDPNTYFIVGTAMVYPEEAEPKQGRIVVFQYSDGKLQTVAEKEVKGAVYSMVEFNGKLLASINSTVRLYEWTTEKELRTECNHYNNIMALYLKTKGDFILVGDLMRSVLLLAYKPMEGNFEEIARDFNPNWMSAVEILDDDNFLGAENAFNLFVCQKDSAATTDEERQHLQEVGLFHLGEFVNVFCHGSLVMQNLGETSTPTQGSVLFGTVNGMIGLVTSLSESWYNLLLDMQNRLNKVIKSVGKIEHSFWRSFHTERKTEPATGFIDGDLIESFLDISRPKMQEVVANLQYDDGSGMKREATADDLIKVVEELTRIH
Chain of biotinylated strep(II)-avi-DDB1-strep(II)-DCAF12 complex (wild type) (homo sapiens) (Q16531 whole entry, chain 1 of 2): as the sequence (Q16531 whole entry partner) above
Chain of biotinylated strep(II)-avi-DDB1-strep(II)-DCAF12 complex (wild type) (homo sapiens) (Q5T6F0 whole entry, chain 2 of 2, further chain): as the sequence (Q5T6F0 whole entry) above
Chain of CCT5_(10) peptide Glu532Ala (P48643 whole entry, looked up, change not shown, tested part not stated): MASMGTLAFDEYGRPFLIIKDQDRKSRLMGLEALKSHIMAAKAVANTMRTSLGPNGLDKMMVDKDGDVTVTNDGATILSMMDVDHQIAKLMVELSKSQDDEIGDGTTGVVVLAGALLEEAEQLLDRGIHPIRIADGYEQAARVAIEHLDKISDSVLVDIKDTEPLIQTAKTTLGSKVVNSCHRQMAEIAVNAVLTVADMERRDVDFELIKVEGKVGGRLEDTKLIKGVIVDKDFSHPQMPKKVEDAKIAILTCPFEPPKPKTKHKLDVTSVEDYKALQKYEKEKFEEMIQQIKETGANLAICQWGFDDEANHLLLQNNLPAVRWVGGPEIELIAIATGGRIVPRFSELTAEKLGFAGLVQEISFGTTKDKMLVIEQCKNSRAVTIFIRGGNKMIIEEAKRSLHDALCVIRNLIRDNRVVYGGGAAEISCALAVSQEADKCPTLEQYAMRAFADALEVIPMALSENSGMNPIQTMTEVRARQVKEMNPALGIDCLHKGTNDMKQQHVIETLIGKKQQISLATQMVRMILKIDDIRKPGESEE

Consider `CC[C@H](C)[C@H](NC(=O)[C@H](CCSC)NC(=O)[C@H](CCCNC(=N)N)NC(=O)[C@@H](NC(=O)[C@H](CCSC)NC(=O)[C@H](CCC(N)=O)NC(=O)CCCN(C)C(=O)c1ccccc1-c1c2ccc(=N)c(S(=O)(=O)O)c-2oc2c(S(=O)(=O)O)c(N)ccc12)C(C)C)C(=O)N[C@@H](CC(C)C)C(=O)N[C@@H](CCCCN)C(=O)N[C@H](C(=O)N[C@@H](CC(=O)O)C(=O)N[C@@H](CC(=O)O)C(=O)N[C@H](C(=O)N[C@@H](CCCNC(=N)N)C(=O)N[C@@H](CCCCN)C(=O)N1CCC[C@H]1C(=O)NCC(=O)N[C@@H](CCC(=O)O)C(=O)N[C@@H](CO)C(=O)N[C@@H](CCC(=O)O)C(=O)N[C@@H](CCC(=O)O)C(=O)O)[C@@H](C)CC)[C@@H](C)CC` [^488CCT5_20] (X1-[NMeGABA]QMVRMILKIDDIRKPGESEE-OH; C-terminus assumed), for which, in assay [1], the “binding to DCAF12 Lys108Ala mutant (in words)” value is “failed to bind”. Further, the “binding to DCAF12 His144Ala mutant (in words)” value in assay [2] is recorded as “failed to bind”. Moreover, the “binding to DCAF12 Arg203Ala mutant (in words)” value in assay [3] is given as “abrogated substrate binding”. Besides, in assay [4], the “binding to DCAF12 Arg256Ala mutant (in words)” value was “abolished; also recorded: failed to bind”. Moreover, in assay [5], the “binding to DCAF12 Arg344Ala mutant (in words)” value is “failed to bind”.

As for AIRKPGESEE [CCT510 D532A], the half-inhibitory concentration (IC50) (usually the concentration at which inhibition is half-maximal) on DDB1‐DCAF12 [6] amounted to 222 ± 25 nM.

In the case of “CCT5 (1–529): CCT5 mutant without the 12 C‐terminal residues”, in the assay with DDB1‐DCAF12 [7], the “binding to DDB1-DCAF12 in pull-down (in words)” value was “did not bind”.

Turning to “CCT5: purified recombinant full‐length human CCT5, a subunit of the TRiC chaperonin, monomeric”, the “binding to DDB1-DCAF12 in pull-down (in words)” value with DDB1‐DCAF12 [7] is on record as “efficiently bound”.

In the case of “CCT5_(10) peptide Glu532Ala (from UniProt P48643 532-541)”, in assay [8], the half-maximal inhibitory concentration (IC50) worked out at 222 nM.

In turn, DARKPGESEE [CCT510 I533A] gave a half-inhibitory concentration (IC50) at DDB1‐DCAF12 [6] of 209 ± 25 nM.

The compound DIAKPGESEE [CCT510 R534A] displayed an IC50 on DDB1‐DCAF12 [6] of 395 ± 68 nM.

For the compound DIRAPGESEE [CCT510 K535A], the concentration for half-maximal inhibition (IC50) at DDB1‐DCAF12 [6] turned out to be 208 ± 26 nM. This IC50 is about 1.9-fold lower than that of the compound before.

On DDB1‐DCAF12 [6], DIRKAGESEE [CCT510 P536A] registered an IC50 of 417 ± 53 nM.

As to DIRKPGASEE [CCT510 E538A], the IC50 on DDB1‐DCAF12 [6] came to 571 ± 103 nM.

In turn, DIRKPGEAEE [CCT510 S539A] showed a half-maximal inhibitory concentration (IC50) at DDB1‐DCAF12 [6] of 125 ± 15 nM.

DIRKPGESAE [CCT510 E540A]: the 50% inhibitory concentration (IC50) at DDB1‐DCAF12 [6] (IC50, TR-FRET competition against TbDDB1-DCAF12^488, n = 3) is more than 50000 nM.

Compound DIRKPGESEE [CCT5_10] gave a half-maximal inhibitory concentration (IC50) at DDB1‐DCAF12 [6] of 363 ± 78 nM.

At DDB1‐DCAF12 [6], EGWRLFKIDKEYLLKMATEE [SAT1_20] registered a half-inhibitory concentration (IC50) of 291 ± 38 nM.

For the compound “TRiC: recombinant ~ 1 MDa human TRiC chaperonin complex of eight co‐expressed subunits”, in the assay with DDB1‐DCAF12 [6] (TR-FRET competition against TbDDB1-DCAF12^488, n = 3), the IC50 is more than 10000 nM.
